“And” between values parts separate entries of the source, which are not always exact repeats. Equal entries are not always repeated. Where two headings read alike, the source gives them in different places. One block for each compound: values may come before it.
How the values were obtained:
mouse GPR40 = molecular target: T1, mouse GPR40 (Mus musculus, UniProt Q76JU9); test: Mouse GPR40 IP1 accumulation assay; type: cell-based; details: for Efficacy (% Activation), Mouse: maximal % activity vs in-house partial agonist control
T1 construct: expressed in transfected cells; host or cells: CHO-K1 (methods)
T1 sequence (Q76JU9 whole entry): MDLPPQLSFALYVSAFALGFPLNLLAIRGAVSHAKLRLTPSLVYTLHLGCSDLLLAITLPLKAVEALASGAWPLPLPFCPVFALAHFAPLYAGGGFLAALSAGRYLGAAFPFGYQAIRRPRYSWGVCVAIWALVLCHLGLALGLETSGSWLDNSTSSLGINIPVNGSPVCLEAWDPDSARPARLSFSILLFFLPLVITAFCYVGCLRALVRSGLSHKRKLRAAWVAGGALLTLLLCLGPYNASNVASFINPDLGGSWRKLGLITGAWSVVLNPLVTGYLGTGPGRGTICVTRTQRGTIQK
Method: (§1) Stable cell lines expressing human GPR40 (hGPR40/HEK293), mouse GPR40 (mGPR40/CHO-K1), and rat GPR40 (rGPR40/CHO-K1) were cultured in DMEM media supplemented with 10% FBS, glutamine, non-essential amino acids, and penicillin/streptomycin. hGPR40/HEK293 & mGPR40/CHO-K1 cell media was supplemented with […] G418 (Life Technologies), while rGPR40/CHO-K1 cells were grown in […] blasticidin plus […] hygromycin (Life Technologies). Cell stocks were maintained and grown in a sub-confluent state using standard cell culture procedures. The day before the experiment, the cells were harvested with non-enzymatic cell dissociation buffer and re-suspended in DMEM supplemented with 10% FBS, glutamine, non-essential amino acids, penicillin/streptomycin at 0.15, 0.2 and 0.3 million cells per ml for human, mouse, and rat GPR40, respectively. […] The seeded plates were incubated overnight at 37 C.
(§2) On the day of the experiment, the growth media was removed from the assay by gently patting the assay plates on an absorbent sheet and 10 μl of IP1 stimulation buffer (Cis Bio IP-one Tb HTRF kit) supplemented with 50 mM LiCl is added to each well. Test compounds dissolved in DMSO were serially diluted in ½ log increments starting from 2 mM or 0.2 mM and 50 nl of the compound dilution was acoustically added to each well (final starting concentration 10 μM or 1 μM). Plates were then incubated for 60 minutes at room temperature and 10 μl of detection buffer (prepared as described in the Tb kit) is added to each well. The plates are then incubated one additional hour at room temperature. […] For each assay, a standard curve plate in which IP1 is titrated is also included. […] The percent activity at each concentration of test compound is determined using 0% activation (basal activity) determined in those wells that contain DMSO alone, while 100% activity is determined in wells that contained a concentration of a partial allosteric agonist know to activate GPR40. The % activity is then plotted versus the concentration of test compound and the dose response curve fitted to a standard 4-parameter non-linear regression model using a custom in-house developed software package (Merck & Co., Inc., MRL, Kenilworth, NJ, USA). Maximal % activity and EC50 are then determined for each test compound.

rat GPR40 = molecular target: T2, rat GPR40 (Rattus norvegicus, UniProt Q8K3T4); test: Rat GPR40 IP1 accumulation assay; type: cell-based; details: for Efficacy (% Activation), Rat: maximal % activity vs in-house partial agonist control
T2 construct: expressed in transfected cells; host or cells: CHO-K1 (methods)
T2 sequence (Q8K3T4 whole entry): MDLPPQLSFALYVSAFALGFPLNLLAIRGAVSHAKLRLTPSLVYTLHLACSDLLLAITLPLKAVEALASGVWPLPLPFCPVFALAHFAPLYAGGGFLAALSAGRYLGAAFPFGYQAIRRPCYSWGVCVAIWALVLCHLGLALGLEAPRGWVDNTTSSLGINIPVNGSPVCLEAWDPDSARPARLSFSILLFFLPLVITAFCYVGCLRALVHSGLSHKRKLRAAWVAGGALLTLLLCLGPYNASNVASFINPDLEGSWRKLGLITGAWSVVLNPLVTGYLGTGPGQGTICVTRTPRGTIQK
Method: as §1, §2

human GPR40 [1] = molecular target: T3, human GPR40 (Homo sapiens, UniProt O14842); test: Human GPR40 IP1 accumulation assay; type: cell-based; design: expressed in transfected cells; details: for Efficacy (% Activation), Human: maximal % activity vs in-house partial agonist control
T3 sequence (O14842 whole entry): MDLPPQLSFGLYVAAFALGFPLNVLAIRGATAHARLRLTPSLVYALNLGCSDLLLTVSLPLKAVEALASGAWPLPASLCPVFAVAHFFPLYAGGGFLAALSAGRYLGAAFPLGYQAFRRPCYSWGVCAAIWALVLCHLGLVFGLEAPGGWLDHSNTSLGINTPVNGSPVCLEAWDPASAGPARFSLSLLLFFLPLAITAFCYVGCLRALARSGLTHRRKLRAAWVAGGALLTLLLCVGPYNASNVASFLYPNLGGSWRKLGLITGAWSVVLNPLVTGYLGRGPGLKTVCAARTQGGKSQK
Method: as §1, §2

human GPR40 [2] = molecular target: T3, human GPR40; test: GPR40 binding assay, partial agonist tracer [3H]L358; design: expressed in transfected cells; host or cells: CHO / CHO-K1 cells, membrane preparation; details: for % Bound Normalized to 100 / %Bound: radioligand L-001533358;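 for %Bound: 100% is tracer binding with DMSO alone and 0% is full displacement by a standard compound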
Method: Two small molecule tracers, the partial agonist [3H][…] and the AgoPAM [3H]25, are used to measure compound affinity at each site as described previously. Because of the allosteric coupling of the two sites and the nature of the assay, addition of a compound will either displace (binds to same site) or augment (binds to allosterically coupled site) radiotracer. Membranes expressing GPR40 were prepared from CHO cells stably expressing human GPR40. […] Sigma P8830) and were homogenized in 50 ml aliquots with a motor-driven glass Dounce homogenizer, 15 strokes at 1900 rpm on wet ice, repeating once. Homogenates were centrifuged at 2200 rpm for 10 min at 4°C. Supernatants were carefully removed and pooled. Homogenization and centrifugation were repeated until the debris pellet was translucent to maximize membrane recovery. Supernatants were then centrifuged at […] rpm for 20 min. at 4°C. […] Protein concentration was determined by Pierce BCA kit. […] The beads and membrane mixture is then vigorously mixed for 30 minutes at room temperature prior to addition to the assay. […] Next, 15 μl of the radioligand and 35 μl of the beads/membranes solution is added to each well. The assay plates are then sealed and incubated for 30 minutes at room temperature on an orbital shaker. The plates are allowed to settle for 16 hours and then counted on a TopCount scintillation counter (PE). […] Maximal % bound and IC50 are then determined for each test compound. 5 μg/well membrane together with 200 μg/well of PVT WGA SPA beads (GE #RPNG-0001) were suspended in a white 96 well plate with a final concentration of 50 μl/well in assay buffer (50 mM Tris, 10 mM MgCl2, and 2 mM EDTA). […] The plate is briefly mixed and incubated for 3-18 h at room temperature, before it is read on a MicroBeta plate counter (Perkin Elmer, MS, USA).

[3] = mean ± SD, n = 2–20, IP accumulation, read-out: Potency [EC50, nM] ± SD, Mouse
[4] = mean ± SD, n = 2–20, IP accumulation, read-out: Potency [EC50, nM] ± SD, Rat
[5] = mean ± SD, n = 2–20, IP accumulation, read-out: Potency [EC50, nM] ± SD, Human

Mouse GPR40 Receptor Activation (%) (mouse GPR40; dose 1.50E-11 M): -3.27%
Mouse GPR40 Receptor Activation (%) (mouse GPR40; dose 1.55E-08 M): 446%
Mouse GPR40 Receptor Activation (%) (mouse GPR40; dose 2.43E-10 M): 50%
Mouse GPR40 Receptor Activation (%) (mouse GPR40; dose 2.49E-07 M): 525%
Mouse GPR40 Receptor Activation (%) (mouse GPR40; dose 3.89E-09 M): 371%
Mouse GPR40 Receptor Activation (%) (mouse GPR40; dose 4.00E-12 M): -5%
Mouse GPR40 Receptor Activation (%) (mouse GPR40; dose 6.10E-11 M): 5%
Mouse GPR40 Receptor Activation (%) (mouse GPR40; dose 6.22E-08 M): 431%
Mouse GPR40 Receptor Activation (%) (mouse GPR40; dose 9.72E-10 M): 174%
EC50 (mouse GPR40; individual determinations, read-out: EC50 (nM), Mouse GPR40, Functional Assay): 0.64 nM and 0.73 nM and 1.06 nM and 1.33 nM and 1.52 nM and 2.22 nM and 2.5 nM and 0.46 nM and 0.58 nM and 0.59 nM
Efficacy (% Activation), Mouse (mouse GPR40): (478%)
EC50 (mouse GPR40; [3]): 1.2 ± 0.72 nM
Rat GPR40 Receptor Activation (%) (rat GPR40; dose 1.50E-11 M): -10%
Rat GPR40 Receptor Activation (%) (rat GPR40; dose 1.55E-08 M): 330%
Rat GPR40 Receptor Activation (%) (rat GPR40; dose 2.43E-10 M): 24%
Rat GPR40 Receptor Activation (%) (rat GPR40; dose 2.49E-07 M): 412%
Rat GPR40 Receptor Activation (%) (rat GPR40; dose 3.89E-09 M): 269%
Rat GPR40 Receptor Activation (%) (rat GPR40; dose 4.00E-12 M): -6.43%
Rat GPR40 Receptor Activation (%) (rat GPR40; dose 6.10E-11 M): -0.311%
Rat GPR40 Receptor Activation (%) (rat GPR40; dose 6.22E-08 M): 389%
Rat GPR40 Receptor Activation (%) (rat GPR40; dose 9.72E-10 M): 121%
Rat GPR40 Receptor Activation (%) (rat GPR40; dose 9.95E-07 M): 389%
EC50 (rat GPR40; individual determinations, read-out: EC50 (nM), Rat GPR40, Functional Assay): 0.79 nM and 0.8 nM and 0.9 nM and 1.01 nM and 1.46 nM and 1.5 nM and 2.03 nM and 2.24 nM and 2.29 nM and 0.57 nM and 0.7 nM and 0.75 nM
Efficacy (% Activation), Rat (rat GPR40): (405%)
EC50 (rat GPR40; [4]): 1.3 ± 0.63 nM
Human GPR40 Receptor Activation (%) (human GPR40 [1]; dose 1.50E-11 M): -1.6%
Human GPR40 Receptor Activation (%) (human GPR40 [1]; dose 1.55E-08 M): 280%
Human GPR40 Receptor Activation (%) (human GPR40 [1]; dose 2.43E-10 M): 54%
Human GPR40 Receptor Activation (%) (human GPR40 [1]; dose 2.49E-07 M): 306%
Human GPR40 Receptor Activation (%) (human GPR40 [1]; dose 3.89E-09 M): 288%
Human GPR40 Receptor Activation (%) (human GPR40 [1]; dose 4.00E-12 M): -5%
Human GPR40 Receptor Activation (%) (human GPR40 [1]; dose 6.10E-11 M): 7%
Human GPR40 Receptor Activation (%) (human GPR40 [1]; dose 6.22E-08 M): 328%
Human GPR40 Receptor Activation (%) (human GPR40 [1]; dose 9.72E-10 M): 183%
Human GPR40 Receptor Activation (%) (human GPR40 [1]; dose 9.95E-07 M): 328%
EC50 (human GPR40 [1]; individual determinations, read-out: EC50 (nM), HUMAN GPR40, Functional Assay): 0.32 nM and 0.43 nM and 0.46 nM and 0.47 nM and 0.73 nM and 0.8 nM and 0.91 nM and 0.19 nM and 0.24 nM and 0.27 nM
Efficacy (% Activation), Human (human GPR40 [1]): (318%)
EC50 (human GPR40 [1]; [5]): 0.48 ± 0.25 nM
% Bound Normalized to 100 (human GPR40 [2]; dose 0.318285 nM): 82.24%
%Bound (human GPR40 [2]; dose 0.318285 nM): 88.22%
% Bound Normalized to 100 (human GPR40 [2]; dose 1.00578 nM): 93.26%
%Bound (human GPR40 [2]; dose 1.00578 nM): 99.24%
% Bound Normalized to 100 (human GPR40 [2]; dose 3.17827 nM): 115.15%
%Bound (human GPR40 [2]; dose 3.17827 nM): 121.13%
% Bound Normalized to 100 (human GPR40 [2]; dose 10.0433 nM): 125.44%
%Bound (human GPR40 [2]; dose 10.0433 nM): 131.41%
% Bound Normalized to 100 (human GPR40 [2]; dose 31.7369 nM): 126.76%
%Bound (human GPR40 [2]; dose 31.7369 nM): 132.74%
% Bound Normalized to 100 (human GPR40 [2]; dose 100.289 nM): 126.17%
%Bound (human GPR40 [2]; dose 100.289 nM): 132.15%
% Bound Normalized to 100 (human GPR40 [2]; dose 316.912 nM): 135.28%
%Bound (human GPR40 [2]; dose 316.912 nM): 141.26%
% Bound Normalized to 100 (human GPR40 [2]; dose 1001.44 nM): 137.19%
%Bound (human GPR40 [2]; dose 1001.44 nM): 143.17%
% Bound Normalized to 100 (human GPR40 [2]; dose 3164.56 nM): 164.81%
%Bound (human GPR40 [2]; dose 3164.56 nM): 170.79%
% Bound Normalized to 100 (human GPR40 [2]; dose 10000 nM): 174.51%
%Bound (human GPR40 [2]; dose 10000 nM): 180.49%
SMILES: C[C@H](C(=O)O)[C@H](c1ccc2c(c1)O[C@H](C1CN(Cc3cc(C(F)(F)F)ccc3C(F)(F)F)C1)CC2)C1CC1 [AP3]
%Act, Mouse GPR40, Functional Assay (mouse GPR40; individual determinations): 596% and 682% and 213% and 314% and 487% and 456% and 680% and 434% and 501% and 418%
%Act, Rat GPR40, Functional Assay (rat GPR40; individual determinations): 265% and 529% and 336% and 568% and 267% and 374% and 399% and 444% and 459% and 365% and 466% and 382%
%Act, HUMAN GPR40, Functional Assay (human GPR40 [1]; individual determinations): 407% and 332% and 338% and 274% and 324% and 328% and 239% and 282% and 383% and 273%

Efficacy (% Activation), Mouse (mouse GPR40): (157%)
EC50 (mouse GPR40; [3]): 2.6 ± 0.8 nM
Efficacy (% Activation), Rat (rat GPR40): (155%)
EC50 (rat GPR40; [4]): 5.2 ± 2.5 nM
Efficacy (% Activation), Human (human GPR40 [1]): (85%)
EC50 (human GPR40 [1]; [5]): 24 ± 13 nM
Binding Results, % in parentheses, [^3H]L-358 (human GPR40 [2]; WT human GPR40, maximal % (not defined)): (108%)
IC50 (human GPR40 [2]; WT human GPR40, n = 2–13, read-out: Binding Results [IC50, nM], [^3H]L-358): 17 ± 4.7 nM
binding of [^3H]L358 (human GPR40 [2]; human GPR40 membranes, competition binding): displace
SMILES: O=C1NC(=O)C(C2CCOc3cc(Oc4ccc(C(F)(F)F)cc4Cl)ccc32)S1 (stereo not shown) [MK-2305, reference compound]

Reference: publication PMC5650142, “GPR40 partial agonists and AgoPAMs: Differentiating effects on glucose and hormonal secretions in the rodent” (PLoS ONE, 2017)
